Measured values from patent publication US9079866B2, “Flap modulators” (JANSSEN PHARMACEUTICA NV, priority 2013, dated 2015).
Counter-ions that a name gives are not always drawn. Like-named read-outs stand apart in the source and are kept apart here.

What was measured:
[1] = biological target: human FLAP (Homo sapiens (Human), UniProt P20292); experiment: FLAP binding assay (HTRF format)
How it was run: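 Reported data take the mean of two different plates carrying duplicate samples and use the HTRF ratio as the measured signal.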

[2] = test system: leukotriene pathway in human whole blood (LTB4 levels); experiment: Human whole blood assay (A23187-stimulated LTB4); type: cell-based; conditions: Homo sapiens, read-out: LTB4 IC50 1:1
How it was run: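 Heparinised human whole blood, diluted 1:1 in RPMI, was pre-incubated with test compounds for 15 min at 37° Celsius, then stimulated with A23187 (7 μg/mL) for 30 min at 37° Celsius. Plasma LTB4 was measured by immunoassay kit; IC50 from 4-parameter fit; single replicate, at least one healthy donor.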

[3] = human whole blood diluted 1:1, A23187-stimulated
[4] = human FLAP wild type, HTRF format, average of two plates, duplicates
[5] = human whole blood diluted 1:1 in RPMI, A23187-stimulated LTB4

human FLAP, sequence (P20292 whole entry): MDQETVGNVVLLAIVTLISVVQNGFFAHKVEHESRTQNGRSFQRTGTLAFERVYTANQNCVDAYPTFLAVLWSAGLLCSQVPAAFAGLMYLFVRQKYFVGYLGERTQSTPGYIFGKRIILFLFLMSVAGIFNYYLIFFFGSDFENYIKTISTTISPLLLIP

Structure (SMILES)	Ki ([1]; wild type FLAP, HTRF format) [nM]	IC50 [2, 3] [nM]	Ki [1, 4] [nM]	IC50 [2, 5] [nM]	Ki ([1]; read-out: FLAP Binding wild type HTRF Ki) [nM]
Nc1cnc(-c2ccc(-c3ccccc3Oc3ccnc(N)n3)cc2F)cn1 [Example 533, 4-{[4′-(5-Aminopyrazin-2-yl)-3′-fluorobiphenyl-2-yl]oxy}pyrimidin-2-amine]	5	23			
N#Cc1ccc(Oc2ccccc2-c2ccc(-c3cnc(N)nc3)c(F)c2)nc1 [Example 627, 6-{[4′-(2-Aminopyrimidin-5-yl)-3′-fluorobiphenyl-2-yl]oxy}pyridine-3-carbonitrile]	43.7	366			
C[C@@H](O)CNS(=O)(=O)c1ccccc1-c1ccc(-c2cnc(N)nc2)c(F)c1 [Example 278, 4′-(2-Aminopyrimidin-5-yl)-3′-fluoro-N-[(2R)-2-hydroxypropyl]biphenyl-2-sulfonamide-trifluoroacetic acid salt]			36	95	
Nc1cnc(-c2ccc(-c3ccccc3S(=O)(=O)N[C@@H]3CCCNC3=O)cc2F)cn1 [Example 113, (R)-4′-(5-Aminopyrazin-2-yl)-3′-fluoro-N-(2-oxopiperidin-3-yl)biphenyl-2-sulfonamide]			10	145	
CN(C)C1CCN(S(=O)(=O)c2ccccc2-c2ccc(-c3cnc(N)cn3)c(F)c2)CC1 [Example 73, 5-(2′-{[4-(Dimethylamino)piperidin-1-yl]sulfonyl}-3-fluorobiphenyl-4-yl)pyrazin-2-amine]			62	77	
CCCCCCS(=O)(=O)Nc1ccccc1-c1ccc(-c2cnc(N)cn2)c(F)c1 [Example 39, N-[4′-(5-Aminopyrazin-2-yl)-3′-fluorobiphenyl-2-yl]hexane-1-sulfonamide]			8	75	
C[C@@H](O)CNS(=O)(=O)c1ccccc1-c1ccc(-c2ncc(N)nc2C#N)c(F)c1 [Example 708, 4′-(5-Amino-3-cyanopyrazin-2-yl)-3′-fluoro-N-[(2R)-2-hydroxypropyl]biphenyl-2-sulfonamide]	23.5	142			
CC(C)(C)NS(=O)(=O)c1ccccc1-c1ccc(-c2ccc(N)nn2)c(F)c1 [Example 417, 4′-(6-Aminopyridazin-3-yl)-N-tert-butyl-3′-fluorobiphenyl-2-sulfonamide]	108	726			
Nc1ncc(-c2ccc(-c3ccc(C(F)(F)F)cc3O)cc2F)cn1 [Example 558, 4′-(2-Aminopyrimidin-5-yl)-3′-fluoro-4-(trifluoromethyl)biphenyl-2-ol]	12	210			
Nc1ncc(-c2ccc(-c3ccccc3Oc3ccnc(N)n3)cc2F)cn1 [Example 534, 4-{[4′-(2-Aminopyrimidin-5-yl)-3′-fluorobiphenyl-2-yl]oxy}pyrimidin-2-amine]	12	69			
Nc1cnc(-c2ccc(-c3ccccc3Sc3ccnc(N)n3)cc2F)cn1 [Example 242, 4-{[4′-(5-Aminopyrazin-2-yl)-3′-fluorobiphenyl-2-yl]sulfanyl}pyrimidin-2-amine hydrochloride]			1	4	
Nc1cnc(-c2ccc(-c3ccccc3NS(=O)(=O)C(F)(F)F)cc2F)cn1 [Example 41, [4′-(5-Aminopyrazin-2-yl)-3′-fluorobiphenyl-2-yl]-1,1,1-trifluoromethanesulfonamide]			14	2690	
C[C@H](O)CNS(=O)(=O)c1ccccc1-c1ccc(-c2ncc(N)nc2C#N)c(F)c1 [Example 707, 4′-(5-Amino-3-cyanopyrazin-2-yl)-3′-fluoro-N-[(2S)-2-hydroxypropyl]biphenyl-2-sulfonamide]	32.7	127			
NC(=O)CSc1ccccc1-c1ccc(-c2cnc(N)cn2)c(F)c1 [Example 200, 2-{[4′-(5-Aminopyrazin-2-yl)-3′-fluorobiphenyl-2-yl]sulfanyl}acetamide]			35	176	
CNS(=O)(=O)c1ccccc1-c1ccc(-c2cnc(N)nc2)c(F)c1 [Example 288, 4′-(2-Aminopyrimidin-5-yl)-3′-fluoro-N-methylbiphenyl-2-sulfonamide trifluoroacetic acid salt]			103	420	
Nc1cnc(-c2ccc(-c3ccccc3C(=O)N3CCOC(CO)C3)cc2F)cn1 (racemic) [Example 798, [2-[4-(5-Aminopyrazin-2-yl)-3-fluoro-phenyl]phenyl]-[2-(hydroxymethyl)morpholin-4-yl]methanone]	257	220			
Nc1cnc(-c2ccc(-c3ccccc3S(=O)(=O)N[C@@H](CO)[C@@H](O)c3ccccc3)cc2F)cn1 [Example 78, 4′-(5-Aminopyrazin-2-yl)-3′-fluoro-N-[(1S,2S)-2-hydroxy-1-(hydroxymethyl)-2-phenylethyl]biphenyl-2-sulfonamide]			1	166	
Nc1cnc(-c2ccc(-c3ccc(C(F)(F)F)cc3C(=O)N3CCC(O)CC3)cc2F)cn1 [Example 795, [2-[4-(5-Aminopyrazin-2-yl)-3-fluoro-phenyl]-5-(trifluoromethyl)phenyl]-(4-hydroxy-1-piperidyl)methanone]	8.5	68.6			
CCCS(=O)(=O)Nc1ccccc1-c1ccc(-c2cnc(N)cn2)c(F)c1 [Example 36, N-[4′-(5-Aminopyrazin-2-yl)-3′-fluorobiphenyl-2-yl]propane-1-sulfonamide]				120	10
N#CC1(S(=O)(=O)c2ccccc2-c2ccc(-c3cnc(N)cn3)c(F)c2)CCCC1 [Example 730, 1-{[4′-(5-Aminopyrazin-2-yl)-3′-fluorobiphenyl-2-yl]sulfonyl}cyclopentanecarbonitrile]	6.7	136			
CC(C)(C)NS(=O)(=O)c1ccccc1-c1ccc(-c2cnc(N)cc2C#N)c(F)c1 [Example 436, 4′-(6-Amino-4-cyanopyridin-3-yl)-N-tert-butyl-3′-fluorobiphenyl-2-sulfonamide]	308	3280			
Nc1ccc(-c2ccc(-c3ccccc3S(=O)(=O)NCC3(O)CNC3)cc2F)cn1 [Example 358, 4′-(6-Aminopyridin-3-yl)-3′-fluoro-N-((3-hydroxyazetidin-3-yl)methyl)-[1,1′-biphenyl]-2-sulfonamide]			55	> 10000	
Nc1ncc(-c2ccc(-c3ccccc3S(=O)(=O)N[C@H]3CCCC[C@@H]3O)cc2F)cn1 (racemic) [Example 260, racemic 4′-(2-Aminopyrimidin-5-yl)-3′-fluoro-N-[(trans)-2-hydroxycyclohexyl]biphenyl-2-sulfonamide]			10	57	
C[C@@H](O)CNS(=O)(=O)c1ccccc1-c1cnc(-c2cnc(N)nc2)c(F)c1 [Example 673, 2-[6-(2-Aminopyrimidin-5-yl)-5-fluoropyridin-3-yl]-N-[(2R)-2-hydroxypropyl]benzenesulfonamide]	134	101			
Nc1cnc(-c2ccc(-c3ccccc3NS(=O)(=O)N3CCOCC3)cc2F)cn1 [Example 183, N-[4′-(5-Aminopyrazin-2-yl)-3′-fluorobiphenyl-2-yl]morpholine-4-sulfonamide]			34	130	
Nc1cnc(-c2ccc(-c3ccccc3S(=O)(=O)N[C@H]3CCNC3=O)cc2F)cn1 [Example 107, (S)-4′-(5-Aminopyrazin-2-yl)-3′-fluoro-N-(2-oxopyrrolidin-3-yl)-[1,1′-biphenyl]-2-sulfonamide]			16	132	
